Data published in patent US20250206732A1, “COMPOUNDS AND METHODS FOR THE TARGETED DEGRADATION OF KRAS” (Arvinas Operations, Inc., priority 2022, published 2025).

Key:
[1] = molecular target: T1, AsPC-1 HiBiT-KRASG12D (Homo sapiens, UniProt P01116, G12D); test: HiBiT degradation assay (G12D), AsPC-1 HiBiT-KRASG12D cells; format: cell-based; details: 24 hours treatment; for Dmax: ASPC1, AsPC-1 HiBiT-KRASG12D cells, maximum degradation observed; for DC50: AsPC-1 HiBiT-KRASG12D cells, HiBiT luminescence
T1 construct: insert the HiBiT tag onto the N-terminus of one or more of the endogenous KRAS alleles; endogenous in cells; host or cells: AsPC-1 (ATCC CRL-1682), CRISPR-Cas9 knock-in clone, one tagged allele
T1 sequence (P01116 1-188 isoform P01116-2 G12D): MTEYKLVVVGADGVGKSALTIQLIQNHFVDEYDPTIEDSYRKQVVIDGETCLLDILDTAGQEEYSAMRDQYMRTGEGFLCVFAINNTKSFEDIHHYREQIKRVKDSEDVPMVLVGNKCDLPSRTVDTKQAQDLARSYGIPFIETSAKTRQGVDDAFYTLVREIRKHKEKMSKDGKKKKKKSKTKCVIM
Outline: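 AsPC-1 cells carried a CRISPR knock-in of an N-terminal HiBiT tag on endogenous KRAS G12D. After 24 h compound treatment at 37 °C (triplicate), viability was read by alamar blue (4 h, fluorescence, normalized to DMSO). HiBiT-KRAS levels were then measured by Nano-Glo HiBiT lytic luminescence after 45 min at room temperature.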

[2] = molecular target: T2, SW1573 HiBiT-KRASG12C (Homo sapiens, UniProt P01116, G12C); test: HiBiT degradation assay (G12C), SW1573 HiBiT-KRASG12C cells; format: cell-based; details: 24 hours treatment; for DC50: HiBiT luminescence; for Dmax: maximum degradation observed;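 on DC50: Letter grades: C is 1000 to 3000 nM and D is above 3000 nM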
T2 construct: expressed in transfected cells
T2 sequence (P01116 1-188 isoform P01116-2 G12C): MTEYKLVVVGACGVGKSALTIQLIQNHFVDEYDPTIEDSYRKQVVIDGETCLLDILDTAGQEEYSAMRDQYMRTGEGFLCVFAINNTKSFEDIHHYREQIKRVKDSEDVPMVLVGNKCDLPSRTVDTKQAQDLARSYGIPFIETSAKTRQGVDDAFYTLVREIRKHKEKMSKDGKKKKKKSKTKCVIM
Protocol: Reagents. SW1573 (CRL-2170), AsPC-1 (CRL-1682), and SW620 (CCL-227) cells were purchased from ATCC. SW1573 cells are homozygous for the G12C mutation in KRAS, AsPC-1 cells are homozygous for the G12D mutation, and SW620 cells are homozygous for the G12V mutation. SW1573 cells were cultured in DMEM+F12+Glutamax (+Sodium Bicarbonate, +sodium pyruvate, ThermoFisher scientific, #10565) supplemented with 10% FBS (ThermoFisher scientific, #2060357) and 1% Antibiotic-Antimycotic (ThermoFisher scientific, #15240096). AsPC-1 cells were cultured in GIBCO RPMI-1640 (ThermoFisher scientific, catalog #61870-036 with Glutamax, No HEPES, No Na Pyruvate) supplemented with 10% FBS (ThermoFisher scientific, catalog #2060357) and 1× Penicillin-Streptomycin (ThermoFisher scientific, catalog #15140122, 10000 U/ml, 100×). SW620 cells were cultured in DMEM Glutamax (ThermoFisher scientific, catalog #10566016) supplemented with 10% FBS (ThermoFisher scientific, catalog #2060357) and 1× Penicillin-Streptomycin (ThermoFisher scientific, catalog #15140122, 10000 U/ml, 100×). For degradation assays, 384 well plates were used. Alamar blue was purchased from ThermoFisher scientific (A50101) and used according to manufacturer instructions. The Nano-Glo® HiBiT Lytic Detection System and Nano-Glo® HiBiT Blotting System were purchased from Promega (#N3050 and #N2410) and used according to manufacturer instructions.
HiBiT-tagged cell line generation. To create the SW1573 HiBiT-KRASG12C cell line, the nucleotide sequence encoding the 11 amino acid HiBiT tag from Promegal was appended to the N-terminus of the KRASG12C coding sequence. This synthesized DNA was cloned into a modified pcDNA3.1 vector under the control of the thymidine kinase (TK) promoter. This HiBiT-KRASG12C expressing plasmid was transfected into parental SW1573 cells and colonies were selected using 400 μg/mL zeocin. The resulting clonal lines were screened for expression of HiBiT-KRASG12C protein using Nano-Glo® HiBiT Blotting System. A luminescent band of the correct size for HiBiT-KRASG12C was detected in several clones. Clone E6 was selected for further studies.
HiBiT degradation assays (G12C and G12D). Either SW1573 HiBiT-KRasG12C or AsPC-1 HiBiT-KRasG12D cells were plated at 9000 or 15,000 cells/well in a 384 well plate (Corning #3770). Compounds of the present disclosure and positive controls were diluted in the appropriate cell media and applied to the plated cells resulting in a final concentration titration of 10 μM to 508 pM in 0.5% DMSO. Gambogic acid was used as a positive control for cytotoxicity and titrated from 10 μM to 78 nM. All assays were performed in triplicate. Cells were treated with compounds for 24 hours at 37° C. in an incubator containing 5% CO2. Following treatment, alamar blue was used to determine if any compounds led to a loss in cell viability after 24 hours. The 10× alamar blue reagent was added to a final concentration of 1× as recommended by the manufacturer and cells were returned to the incubator for 4 hours. Plates were then allowed to equilibrate to room temperature and fluorescence was measured using a Perkin-Elmer EnVision. After completion of the fluorescence read, the liquid from each well was removed and the cells were washed with PBS. The Nano-Glo® HiBiT detection reagent was prepared according to the manufacturer's instructions and added to each well after the PBS wash was removed. Following incubation at room temperature for 45 minutes, the luminescence was read using the ultra-sensitive luminescence aperture on the Envision instrument.
Data analysis. Fluorescence values from the alamar blue treatment were normalized to the DMSO-only control for each compound titration. […]

Structure (SMILES): CCc1cccc2cc(O)cc(-c3ncc4c(N5CC6CCC(C5)N6)nc(OCCN5CCC(COC6(C(=O)N[C@H](C(=O)N7C[C@H](O)C[C@H]7C(=O)N[C@@H](C)c7ccc(-c8scnc8C)cc7)C(C)(C)C)CC6)CC5)nc4c3F)c12 [Compound 9, (2S,4R)-1-[(2S)-2-[[1-[[1-[2-[4-(3,8-diazabicyclo[3.2.1]octan-3-yl)-7-(8-ethyl-3-hydroxy-1-naphthyl)-8-fluoro-pyrido[4,3-d]pyrimidin-2-yl]oxyethyl]-4-piperidyl]methoxy]cyclopropanecarbonyl]amino]-3,3-dimethyl-butanoyl]-4-hydroxy-N-[(1S)-1-[4-(4-methylthiazol-5-yl)phenyl]ethyl]pyrrolidine-2-carboxamide]
- Dmax [1]: 80 to 100%
- DC50 [1]: < 600 nM
- DC50 [2]: > 3000 nM

Structure (SMILES): CCc1cccc2cc(O)cc(-c3ncc4c(N5CC6CCC(C5)N6)nc(OC[C@]56CCCN5[C@@H](COc5cc(C(C(=O)N7C[C@H](O)C[C@H]7C(=O)N[C@@H](C)c7ccc(-c8scnc8C)cc7)C(C)C)on5)CC6)nc4c3F)c12 (stereo partly drawn) [Compound 38, (2S,4R)-1-[2-(3-{[(3R,7aR)-7a-{[(4-{3,8-diazabicyclo[3.2.1]octan-3-yl}-7-(8-ethyl-3-hydroxynaphthalen-1-yl)-8-fluoropyrido[4,3-d]pyrimidin-2-yl)oxy]methyl}-hexahydro-1H-pyrrolizin-3-yl]methoxy}-1,2-oxazol-5-yl)-3-methylbutanoyl]-4-hydroxy-N-[(1S)-1-[4-(4-methyl-1,3-thiazol-5-yl)phenyl]ethyl]pyrrolidine-2-carboxamide]
- Dmax [1]: 80 to 100%
- DC50 [1]: < 600 nM
- DC50 [2]: 1000 to 3000 nM
- Dmax [2]: 20 to 60%

Structure (SMILES): CCc1cccc2cc(O)cc(-c3ncc4c(N5CC6CCC(C5)N6)nc(OCCN5CCC(OCC(=O)N[C@H](C(=O)N6C[C@H](O)C[C@H]6C(=O)N[C@@H](C)c6ccc(-c7scnc7C)cc6)C(C)(C)C)CC5)nc4c3F)c12 [Compound 12, (2S,4R)-1-[(2S)-2-[[2-[[1-[2-[4-(3,8-diazabicyclo[3.2.1]octan-3-yl)-7-(8-ethyl-3-hydroxy-1-naphthyl)-8-fluoro-pyrido[4,3-d]pyrimidin-2-yl]oxyethyl]-4-piperidyl]oxy]acetyl]amino]-3,3-dimethyl-butanoyl]-4-hydroxy-N-[(1S)-1-[4-(4-methylthiazol-5-yl)phenyl]ethyl]pyrrolidine-2-carboxamide]
- Dmax [1]: 80 to 100%
- DC50 [1]: 1000 to 3000 nM
- DC50 [2]: > 3000 nM

Structure (SMILES): CCc1cccc2cc(O)cc(-c3ncc4c(N5CCCCCC5)nc(OC[C@]56CCCN5[C@@H](COC(=O)N5CCN(c7cc([C@@H](C(=O)N8C[C@H](O)C[C@H]8C(=O)N[C@@H](C)c8ccc(-c9scnc9C)cc8)C(C)C)on7)CC5)CC6)nc4c3F)c12 [Compound 46, [(3R,7aR)-7a-({[4-(azepan-1-yl)-7-(8-ethyl-3-hydroxynaphthalen-1-yl)-8-fluoropyrido[4,3-d]pyrimidin-2-yl]oxy}methyl)-hexahydro-1H-pyrrolizin-3-yl]methyl 4-{5-[(2S)-1-[(2S,4R)-4-hydroxy-2-{[(1S)-1-[4-(4-methyl-1,3-thiazol-5-yl)phenyl]ethyl]carbamoyl}pyrrolidin-1-yl]-3-methyl-1-oxobutan-2-yl]-1,2-oxazol-3-yl}piperazine-1-carboxylate]
- DC50 [1]: > 3000 nM
- DC50 [2]: > 3000 nM

Structure (SMILES): CCc1cccc2cc(O)cc(-c3ncc4c(N5CC6CCC(C5)N6)nc(OCCN5CCC(COc6cc([C@@H](C(=O)N7C[C@H](O)C[C@H]7C(=O)N[C@@H](C)c7ccc(-c8scnc8C)cc7)C(C)C)on6)CC5)nc4c3F)c12 [Compound 8, (2S,4R)-1-[(2S)-2-[3-[[1-[2-[4-(3,8-diazabicyclo[3.2.1]octan-3-yl)-7-(8-ethyl-3-hydroxy-1-naphthyl)-8-fluoro-pyrido[4,3-d]pyrimidin-2-yl]oxyethyl]-4-piperidyl]methoxy]isoxazol-5-yl]-3-methyl-butanoyl]-4-hydroxy-N-[(1S)-1-[4-(4-methylthiazol-5-yl)phenyl]ethyl]pyrrolidine-2-carboxamide]
- Dmax [1]: 20 to 60%
- DC50 [1]: 1000 to 3000 nM
- DC50 [2]: > 3000 nM

Structure (SMILES): CCc1cccc2cc(O)cc(-c3ncc4c(N5CCCCCC5)nc(OC[C@]56CCCN5[C@@H](COC(=O)N5CCN(c7cc([C@H](C(=O)N8C[C@H](O)C[C@H]8C(=O)N[C@@H](C)c8ccc(-c9scnc9C)cc8)C(C)C)on7)CC5)CC6)nc4c3F)c12 [Compound 45, [(3R,7aR)-7a-({[4-(azepan-1-yl)-7-(8-ethyl-3-hydroxynaphthalen-1-yl)-8-fluoropyrido[4,3-d]pyrimidin-2-yl]oxy}methyl)-hexahydro-1H-pyrrolizin-3-yl]methyl 4-{5-[(2R)-1-[(2S,4R)-4-hydroxy-2-{[(1S)-1-[4-(4-methyl-1,3-thiazol-5-yl)phenyl]ethyl]carbamoyl}pyrrolidin-1-yl]-3-methyl-1-oxobutan-2-yl]-1,2-oxazol-3-yl}piperazine-1-carboxylate]
- Dmax [1]: 80 to 100%
- DC50 [1]: < 600 nM
- DC50 [2]: ≤ 600 nM
- Dmax [2]: 60 to 80%

Structure (SMILES): CCc1cccc2cc(O)cc(-c3ncc4c(N5CC6CCC(C5)N6)nc(OC[C@]56CCCN5[C@@H](COCC(=O)N[C@H](C(=O)N5C[C@H](O)C[C@H]5C(=O)N[C@@H](C)c5ccc(-c7scnc7C)cc5)C(C)(C)C)CC6)nc4c3F)c12 [Compound 1, (2S,4R)-1-[(2S)-2-[[2-[[(3R,8R)-8-[[4-(3,8-diazabicyclo[3.2.1]octan-3-yl)-7-(8-ethyl-3-hydroxy-1-naphthyl)-8-fluoro-pyrido[4,3-d]pyrimidin-2-yl]oxymethyl]-1,2,3,5,6,7-hexahydropyrrolizin-3-yl]methoxy]acetyl]amino]-3,3-dimethyl-butanoyl]-4-hydroxy-N-[(1S)-1-[4-(4-methylthiazol-5-yl)phenyl]ethyl]pyrrolidine-2-carboxamide]
- Dmax [1]: 80 to 100%
- DC50 [1]: 600 to 1000 nM
- DC50 [2]: > 3000 nM
- Dmax [2]: 20 to 60%

Structure (SMILES): CCc1cccc2cccc(-c3ncc4c(N5CC6CCC(C5)N6)nc(OC[C@@]56CCCN5[C@H](COC(=O)N5CCN(c7cc([C@H](C(=O)N8C[C@H](O)C[C@H]8C(=O)N[C@@H](C)c8ccc(-c9scnc9C)cc8)C(C)C)on7)CC5)CC6)nc4c3F)c12 [Compound 35, [(3S,7aS)-7a-{[(4-{3,8-diazabicyclo[3.2.1]octan-3-yl}-7-(8-ethylnaphthalen-1-yl)-8-fluoropyrido[4,3-d]pyrimidin-2-yl)oxy]methyl}-hexahydro-1H-pyrrolizin-3-yl]methyl 4-{5-[(2R)-1-[(2S,4R)-4-hydroxy-2-{[(1S)-1-[4-(4-methyl-1,3-thiazol-5-yl)phenyl]ethyl]carbamoyl}pyrrolidin-1-yl]-3-methyl-1-oxobutan-2-yl]-1,2-oxazol-3-yl}piperazine-1-carboxylate]
- Dmax [1]: 80 to 100%
- DC50 [1]: < 600 nM
- DC50 [2]: > 3000 nM
